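A five-concentration, 48-hour dose response in 96-well plates underlies each endpoint, interpolated linearly between surrounding concentrations. Abbreviation: GI50, concentration required for 50% inhibition of growth. The concentration for full growth arrest is given as TGI.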
Experiments:
Experiment in all cases: DTP human tumour cell line panel, 48 h
SK-OV-3 ovarian = tested on: SK-OV-3 ovarian
HCC-2998 colon = tested on: HCC-2998 colon
SW-620 colon = tested on: SW-620 colon
MALME-3M melanoma = tested on: MALME-3M melanoma
K-562 leukemia = tested on: K-562 leukemia
UACC-257 melanoma = tested on: UACC-257 melanoma
SF-295 CNS = tested on: SF-295 CNS
MDA-MB-231 breast = tested on: MDA-MB-231 breast
UO-31 renal = tested on: UO-31 renal
MDA-MB-435 = tested on: MDA-MB-435
SK-MEL-5 melanoma = tested on: SK-MEL-5 melanoma
T-47D breast = tested on: T-47D breast
UACC-62 melanoma = tested on: UACC-62 melanoma
HCT-15 colon = tested on: HCT-15 colon
786-0 renal = tested on: 786-0 renal
M14 melanoma = tested on: M14 melanoma
SF-268 CNS = tested on: SF-268 CNS
OVCAR-5 ovarian = tested on: OVCAR-5 ovarian
HOP-92 NSCLC = tested on: HOP-92 NSCLC
SN12C renal = tested on: SN12C renal
NCI-H23 lung = tested on: NCI-H23 lung
NCI-H522 lung = tested on: NCI-H522 lung
BT-549 breast = tested on: BT-549 breast
U251 CNS = tested on: U251 CNS
OVCAR-8 ovarian = tested on: OVCAR-8 ovarian
NCI/ADR-RES ovarian = tested on: NCI/ADR-RES ovarian
SR leukemia = tested on: SR leukemia
PC-3 prostate = tested on: PC-3 prostate
TK-10 renal = tested on: TK-10 renal
RPMI-8226 leukemia = tested on: RPMI-8226 leukemia
HS 578T breast = tested on: HS 578T breast
DU-145 prostate = tested on: DU-145 prostate
MOLT-4 leukemia = tested on: MOLT-4 leukemia
SK-MEL-2 melanoma = tested on: SK-MEL-2 melanoma
KM12 colon = tested on: KM12 colon
RXF 393 renal = tested on: RXF 393 renal
SNB-19 CNS = tested on: SNB-19 CNS
SK-MEL-28 melanoma = tested on: SK-MEL-28 melanoma
EKVX NSCLC = tested on: EKVX NSCLC
IGROV1 ovarian = tested on: IGROV1 ovarian
HCT-116 colon = tested on: HCT-116 colon
A498 renal = tested on: A498 renal
OVCAR-3 ovarian = tested on: OVCAR-3 ovarian
SNB-75 CNS = tested on: SNB-75 CNS
CAKI-1 renal = tested on: CAKI-1 renal
ACHN renal = tested on: ACHN renal
HL-60(TB) leukemia = tested on: HL-60(TB) leukemia
HOP-62 NSCLC = tested on: HOP-62 NSCLC
HT29 colon = tested on: HT29 colon
SF-539 CNS = tested on: SF-539 CNS
LOX IMVI melanoma = tested on: LOX IMVI melanoma
CCRF-CEM leukemia = tested on: CCRF-CEM leukemia
MCF7 breast = tested on: MCF7 breast
COLO 205 colon = tested on: COLO 205 colon
A549 NSCLC = tested on: A549 NSCLC
NCI-H460 lung = tested on: NCI-H460 lung
OVCAR-4 ovarian = tested on: OVCAR-4 ovarian
NCI-H226 lung = tested on: NCI-H226 lung

Work on `COc1cc2c(cc1I)-c1c(cc(OC)c(OC)c1OC)CC[C@@H]2NC(C)=O` yielded a GI50 (SK-OV-3 ovarian) of 416 nM, a TGI (SK-OV-3 ovarian) of 12600 nM and a GI50 (HCC-2998 colon) of 664 nM. It also gave a TGI (HCC-2998 colon) of 6310 nM, a GI50 (SW-620 colon) of 312 nM and a TGI (SW-620 colon) of 42200 nM. For the same compound, the GI50 (MALME-3M melanoma) was 383 nM, the TGI (MALME-3M melanoma) was 32000 nM and the GI50 (K-562 leukemia) was 385 nM. The TGI (K-562 leukemia) was 17800 nM, the GI50 (UACC-257 melanoma) was 415 nM and the TGI (UACC-257 melanoma) was 60000 nM. It also gave a GI50 (SF-295 CNS) of 299 nM, a TGI (SF-295 CNS) of 3410 nM and a GI50 (MDA-MB-231 breast) of 834 nM. It also gave a TGI (MDA-MB-231 breast) of 7210 nM, a GI50 (UO-31 renal) of 517 nM and a TGI (UO-31 renal) of over 36800 nM. For the same compound, the GI50 (MDA-MB-435) was 213 nM, the TGI (MDA-MB-435) was 550 nM and the GI50 (SK-MEL-5 melanoma) was 290 nM. It also gave a TGI (SK-MEL-5 melanoma) of 1100 nM, a GI50 (T-47D breast) of 366 nM and a TGI (T-47D breast) of over 100000 nM. It also gave a GI50 (UACC-62 melanoma) of 528 nM, a TGI (UACC-62 melanoma) of 30300 nM and a GI50 (HCT-15 colon) of 419 nM. It also gave a TGI (HCT-15 colon) of 16800 nM, a GI50 (786-0 renal) of 434 nM and a TGI (786-0 renal) of 9260 nM. For the same compound, the GI50 (M14 melanoma) was 283 nM, the TGI (M14 melanoma) was 2650 nM and the GI50 (SF-268 CNS) was 424 nM. It also gave a TGI (SF-268 CNS) of 6540 nM, a GI50 (OVCAR-5 ovarian) of 573 nM and a TGI (OVCAR-5 ovarian) of 39100 nM. For the same compound, the GI50 (HOP-92 NSCLC) was 987 nM, the TGI (HOP-92 NSCLC) was 10700 nM and the GI50 (SN12C renal) was 589 nM. It also gave a TGI (SN12C renal) of 52000 nM, a GI50 (NCI-H23 lung) of 413 nM and a TGI (NCI-H23 lung) of 5650 nM. It also gave a GI50 (NCI-H522 lung) of 178 nM, a TGI (NCI-H522 lung) of 689 nM and a GI50 (BT-549 breast) of 691 nM. It also gave a TGI (BT-549 breast) of 3160 nM, a GI50 (U251 CNS) of 412 nM and a TGI (U251 CNS) of 12200 nM. The GI50 (OVCAR-8 ovarian) was 526 nM, the TGI (OVCAR-8 ovarian) was 14200 nM and the GI50 (NCI/ADR-RES ovarian) was 985 nM. It also gave a TGI (NCI/ADR-RES ovarian) of 6180 nM, a GI50 (SR leukemia) of 391 nM and a TGI (SR leukemia) of 34600 nM. The GI50 (PC-3 prostate) was 464 nM, the TGI (PC-3 prostate) was over 42200 nM and the GI50 (TK-10 renal) was 607 nM. It also gave a TGI (TK-10 renal) of 27300 nM, a GI50 (RPMI-8226 leukemia) of 505 nM and a TGI (RPMI-8226 leukemia) of over 100000 nM. For the same compound, the GI50 (HS 578T breast) was 207 nM, the TGI (HS 578T breast) was 593 nM and the GI50 (DU-145 prostate) was 317 nM. For the same compound, the TGI (DU-145 prostate) was 1030 nM, the GI50 (MOLT-4 leukemia) was 672 nM and the TGI (MOLT-4 leukemia) was 25800 nM. It also gave a GI50 (SK-MEL-2 melanoma) of 235 nM, a TGI (SK-MEL-2 melanoma) of 858 nM and a GI50 (KM12 colon) of 390 nM. It also gave a TGI (KM12 colon) of 5600 nM, a GI50 (RXF 393 renal) of 211 nM and a TGI (RXF 393 renal) of 569 nM. It also gave a GI50 (SNB-19 CNS) of 485 nM, a TGI (SNB-19 CNS) of over 41000 nM and a GI50 (SK-MEL-28 melanoma) of 344 nM. The TGI (SK-MEL-28 melanoma) was 19100 nM, the GI50 (EKVX NSCLC) was 2550 nM and the TGI (EKVX NSCLC) was over 100000 nM. The GI50 (IGROV1 ovarian) was 323 nM, the TGI (IGROV1 ovarian) was 5430 nM and the GI50 (HCT-116 colon) was 384 nM. It also gave a TGI (HCT-116 colon) of 7140 nM, a GI50 (A498 renal) of 231 nM and a TGI (A498 renal) of 725 nM. It also gave a GI50 (OVCAR-3 ovarian) of 232 nM, a TGI (OVCAR-3 ovarian) of 572 nM and a GI50 (SNB-75 CNS) of 388 nM. For the same compound, the TGI (SNB-75 CNS) was 32600 nM, the GI50 (CAKI-1 renal) was 522 nM and the TGI (CAKI-1 renal) was over 47000 nM. For the same compound, the GI50 (ACHN renal) was 614 nM, the TGI (ACHN renal) was 33800 nM and the GI50 (HL-60(TB) leukemia) was 461 nM. For the same compound, the GI50 (HOP-62 NSCLC) was 556 nM, the TGI (HOP-62 NSCLC) was over 33000 nM and the GI50 (HT29 colon) was 294 nM. The TGI (HT29 colon) was 2670 nM, the GI50 (SF-539 CNS) was 239 nM and the TGI (SF-539 CNS) was 737 nM. It also gave a GI50 (LOX IMVI melanoma) of 573 nM, a TGI (LOX IMVI melanoma) of 18700 nM and a GI50 (CCRF-CEM leukemia) of 411 nM. It also gave a TGI (CCRF-CEM leukemia) of over 100000 nM, a GI50 (MCF7 breast) of 370 nM and a TGI (MCF7 breast) of 20800 nM. The GI50 (COLO 205 colon) was 314 nM, the TGI (COLO 205 colon) was 1360 nM and the GI50 (A549 NSCLC) was 577 nM. The TGI (A549 NSCLC) was over 51900 nM, the GI50 (NCI-H460 lung) was 374 nM and the TGI (NCI-H460 lung) was 3900 nM. The GI50 (OVCAR-4 ovarian) was 2240 nM, the TGI (OVCAR-4 ovarian) was over 100000 nM and the GI50 (NCI-H226 lung) was 1460 nM. It also gave a TGI (NCI-H226 lung) of 22000 nM.

From PubChem BioAssay (NCI)
